Test results as given in the NIST ThermoML archive (doi:10.1021/je034036t).

Details: Liquid, Pulse-echo method

COCCOCCOCCOC [2,5,8,11-tetraoxadodecane]
speed of sound [m/s]
Details | 293.15 K | 303.15 K | 313.15 K | 323.15 K | 333.15 K | 343.15 K | 353.15 K
100 kPa | 1361.9 | 1323.2 | 1285.1 | 1247.7 | 1210.9 | 1174.6 | 1138.7
10000 kPa | 1403.1 | 1366.5 | 1330 | 1294.6 | 1259.5 | 1225.1 | 1191.5
20000 kPa | 1442.5 | 1407.2 | 1372.2 | 1338.5 | 1304.8 | 1272 | 1240
30000 kPa | 1479.3 | 1445.2 | 1411.8 | 1379.1 | 1346.9 | 1315.6 | 1284.6
40000 kPa | 1514.7 | 1481.6 | 1448.8 | 1417.3 | 1386.3 | 1356.2 | 1326.2
50000 kPa | 1547.8 | 1515.7 | 1484.1 | 1453.6 | 1423.4 | 1394.1 | 1365.6
60000 kPa | 1579.5 | 1548.2 | 1517.5 | 1487.9 | 1458.8 | 1430.3 | 1402.4
70000 kPa | 1610 | 1579.4 | 1549.7 | 1520.7 | 1492.1 | 1464.6 | 1437.6
80000 kPa | 1639.3 | 1609.3 | 1580.3 | 1552 | 1524.3 | 1497.2 | 1470.9
90000 kPa | 1667.4 | 1638.2 | 1609.9 | 1581.9 | 1554.8 | 1528.4 | 1502.6
100000 kPa | 1694.6 | 1665.9 | 1638.1 | 1610.8 | 1584.3 | 1558.5 | 1533.4

COCCOCCOCCOCCOC [2,5,8,11,14-pentaoxapentadecane]
speed of sound [m/s]
Details | 293.15 K | 303.15 K | 313.15 K | 323.15 K | 333.15 K | 343.15 K | 353.15 K
100 kPa | 1400.2 | 1361.6 | 1324.5 | 1288 | 1252 | 1216.6 | 1181.6
10000 kPa | 1439.3 | 1402.8 | 1367 | 1332.1 | 1297.9 | 1264.2 | 1231.2
20000 kPa | 1477.3 | 1441.7 | 1407.3 | 1373.8 | 1340.7 | 1308.6 | 1276.9
30000 kPa | 1512.3 | 1478.2 | 1444.9 | 1412.5 | 1380.8 | 1349.9 | 1319.8
40000 kPa | 1546.2 | 1513 | 1480.9 | 1449.5 | 1418.3 | 1388.8 | 1359.8
50000 kPa | 1578.2 | 1546.1 | 1514.8 | 1484.2 | 1454.2 | 1425.3 | 1397.1
60000 kPa | 1609.1 | 1577.7 | 1547.2 | 1517.4 | 1488.4 | 1460.1 | 1432.8
70000 kPa | 1638.4 | 1607.6 | 1578.1 | 1548.8 | 1520.7 | 1493.1 | 1466.5
80000 kPa | 1666.8 | 1637 | 1607.8 | 1579.3 | 1551.9 | 1524.7 | 1498.9
90000 kPa | 1694.2 | 1664.9 | 1636.4 | 1608.6 | 1581.5 | 1555.3 | 1529.8
100000 kPa | 1720.6 | 1692 | 1663.9 | 1636.7 | 1610.2 | 1584.4 | 1559.5
